Source: patent publication US6855843B2, “Inhibitors of α4 mediated cell adhesion” (Tanabe Seiyaku Co., Ltd., priority 1998, dated 2005)

Target: T1, α4β7 (adhesion of RPMI cells to CS-1) (Homo sapiens, UniProt P13612+P26010)
T1 construct: endogenous in cells
T1 sequence (P13612 34-1032): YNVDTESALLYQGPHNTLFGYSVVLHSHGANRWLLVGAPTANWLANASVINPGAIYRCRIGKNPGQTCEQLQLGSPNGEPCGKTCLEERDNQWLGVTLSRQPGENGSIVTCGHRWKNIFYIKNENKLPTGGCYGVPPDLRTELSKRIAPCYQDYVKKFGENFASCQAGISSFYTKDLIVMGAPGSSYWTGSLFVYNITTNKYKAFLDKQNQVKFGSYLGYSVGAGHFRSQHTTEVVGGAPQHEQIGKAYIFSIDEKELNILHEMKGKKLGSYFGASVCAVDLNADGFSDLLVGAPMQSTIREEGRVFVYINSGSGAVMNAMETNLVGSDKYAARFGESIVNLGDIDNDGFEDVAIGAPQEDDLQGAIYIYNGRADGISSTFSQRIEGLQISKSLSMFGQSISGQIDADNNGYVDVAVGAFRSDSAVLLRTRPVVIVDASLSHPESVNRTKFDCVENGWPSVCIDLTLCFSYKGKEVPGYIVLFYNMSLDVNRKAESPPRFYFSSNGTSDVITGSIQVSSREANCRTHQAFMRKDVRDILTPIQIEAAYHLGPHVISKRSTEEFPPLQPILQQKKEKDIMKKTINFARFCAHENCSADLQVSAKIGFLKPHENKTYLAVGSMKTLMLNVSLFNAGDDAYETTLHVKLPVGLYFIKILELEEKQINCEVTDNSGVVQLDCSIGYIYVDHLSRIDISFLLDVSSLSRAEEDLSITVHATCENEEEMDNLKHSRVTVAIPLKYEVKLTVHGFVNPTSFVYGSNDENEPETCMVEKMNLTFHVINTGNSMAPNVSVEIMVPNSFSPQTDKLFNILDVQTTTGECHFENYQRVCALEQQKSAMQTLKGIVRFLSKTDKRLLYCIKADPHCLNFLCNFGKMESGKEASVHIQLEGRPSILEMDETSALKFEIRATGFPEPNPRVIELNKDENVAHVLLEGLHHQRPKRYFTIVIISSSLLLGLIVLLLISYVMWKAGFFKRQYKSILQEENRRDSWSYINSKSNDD
T1 sequence (P26010 20-798): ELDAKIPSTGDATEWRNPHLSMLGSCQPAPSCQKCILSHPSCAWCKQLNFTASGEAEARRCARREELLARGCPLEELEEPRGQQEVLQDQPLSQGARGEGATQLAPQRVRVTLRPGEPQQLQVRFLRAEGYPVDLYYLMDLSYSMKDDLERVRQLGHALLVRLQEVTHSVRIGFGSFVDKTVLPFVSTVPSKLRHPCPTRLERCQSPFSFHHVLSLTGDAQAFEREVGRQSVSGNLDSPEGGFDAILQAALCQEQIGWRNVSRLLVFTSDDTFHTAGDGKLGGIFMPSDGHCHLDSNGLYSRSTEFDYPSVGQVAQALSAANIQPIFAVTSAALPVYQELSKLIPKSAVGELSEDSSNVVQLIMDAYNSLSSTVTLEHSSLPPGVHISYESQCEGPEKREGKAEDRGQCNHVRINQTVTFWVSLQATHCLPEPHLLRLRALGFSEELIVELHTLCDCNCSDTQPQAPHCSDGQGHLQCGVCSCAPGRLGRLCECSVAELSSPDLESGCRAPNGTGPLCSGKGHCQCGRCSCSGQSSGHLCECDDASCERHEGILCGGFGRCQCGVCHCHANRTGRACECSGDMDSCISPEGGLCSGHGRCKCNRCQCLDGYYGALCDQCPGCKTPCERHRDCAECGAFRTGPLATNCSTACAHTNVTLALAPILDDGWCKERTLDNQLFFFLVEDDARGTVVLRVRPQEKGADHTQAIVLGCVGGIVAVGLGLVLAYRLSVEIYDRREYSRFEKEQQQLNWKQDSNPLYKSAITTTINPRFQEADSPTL
Experiment: RPMI-CS-1 cell adhesion assay
Format: cell-based
Details: adhesion of RPMI B-cell line (expresses α4β7) to CS-1 peptide coated microwells; read-out: RPMI-CS-1 IC50 value range
Method: RPMI-CS-1 Cell Adhesion Assay:
The test compounds were added in increasing concentrations to RPMI cells and then the cell-compound mixture was added to CS-1 coated microwells. The plates were incubated, washed and the percentage of attached cells were quantitated.
The CS-1 derived peptide, […], and the scrambled control peptide, […], were synthesized at Tanabe Research Laboratories, USA, Inc. on a Beckman 990 synthesizer using t-Boc methodology. […] Microtiter plates were coated with 20 μg/ml human serum albumin (HSA) for 2 hours at room temperature, washed once with PBS and derivatized with 10 μg/ml SPDP for 1 hour. […] Unbound peptide was removed from the plates by washing with PBS. To block non-reacted sites, the plates were coated with 100 μl of a 2.5 mg/ml BSA solution in PBS for one hour at 37° C. 100 μl of RPMI cells (2.5×10^6 cells/ml) in Dulbecco's Modified Eagles Medium (DMEM) plus 0.25% ovalbumin were added to peptide coated dishes and incubated for 1 hour at 37° C. […] To do this, the enzyme substrate p-nitrophenyl-N-acetyl-β-D-glucoseaminide is dissolved at 7.5 mM in 0.1 M citrate buffer pH 5 and then mixed with an equal volume of 0.5% Triton X100. 50 μl of the substrate solution was added to the plates and the plates were incubated at 37° C. for 60 minutes.
In this assay, IC50 value ranges (μM) are depicted by A, B, C and D. These ranges as follows. D>5≧C>1≧B>0.3≧A

IC50 [nM] | SMILES
1000 to 5000 | COc1ccccc1-c1ccc(C[C@H](NC(=O)c2ccc(Cl)cc2Cl)C(=O)O)cc1 [Example 84]
< 300 | COc1ccccc1-c1ccc(C[C@H](NC(=O)c2c(F)cccc2Cl)C(=O)O)cc1 [Example 86]
1000 to 5000 | COc1ccccc1-c1ccc(C[C@H](NC(=O)c2ccccc2C(F)(F)F)C(=O)O)cc1 [Example 88]
300 to 1000 | COc1ccccc1-c1ccc(C[C@H](NC(=O)c2cccnc2Cl)C(=O)O)cc1 [Example 90]
> 5000 | COc1ccccc1-c1ccc(C[C@H](NC(=O)c2ccc(Cl)nc2)C(=O)O)cc1 [Example 93]
1000 to 5000 | COc1ccccc1-c1ccc(C[C@H](NC(=O)c2ccc(C)nc2Cl)C(=O)O)cc1 [Example 94]
1000 to 5000 | COc1ccccc1-c1ccc(C[C@H](NC(=O)C(=O)c2ccccc2)C(=O)O)cc1 [Example 95]
300 to 1000 | COc1ccccc1-c1ccc(C[C@H](NC(=O)c2ccccc2Br)C(=O)O)cc1 [Example 96]
300 to 1000 | CCCc1ccc(C(=O)N[C@@H](Cc2ccc(-c3ccccc3OC)cc2)C(=O)O)cc1 [Example 97]
> 5000 | COc1ccccc1-c1ccc(C[C@H](NC(=O)c2ccc([N+](=O)[O-])cc2)C(=O)O)cc1 [Example 101]
> 5000 | COc1ccccc1-c1ccc(C[C@H](NC(=O)c2ccc(CC(C)C)cc2)C(=O)O)cc1 [Example 102]
> 5000 | COc1ccccc1-c1ccc(C[C@H](NC(=O)c2cnccn2)C(=O)O)cc1 [Example 103]
> 5000 | COc1ccccc1-c1ccc(C[C@H](NC(=O)c2ccc(NC(C)=O)cc2)C(=O)O)cc1 [Example 104]
> 5000 | COc1ccccc1-c1ccc(C[C@H](NC(=O)c2ccccc2NC(C)=O)C(=O)O)cc1 [Example 105]
1000 to 5000 | COc1ccccc1-c1ccc(C[C@H](NC(=O)c2ccccc2NC(=O)c2c(Cl)cccc2Cl)C(=O)O)cc1 [Example 106]
1000 to 5000 | COc1ccccc1-c1ccc(C[C@H](NC(=O)c2ccc(NC(=O)c3c(Cl)cccc3Cl)cc2)C(=O)O)cc1 [Example 107]

Second part, the compound before the results:

SMILES | IC50 [nM]
O=C(NCCCO)c1ccccc1-c1ccc(C[C@H](NC(=O)c2c(Cl)cccc2Cl)C(=O)O)cc1 [Example 57, N-(2,6-Dichlorobenzoyl)-4-[2-[N-(3-hydroxypropyl)carbamoyl]phenyl]-L-phenylalanine] | 1000 to 5000
CN(C)C(=O)c1ccccc1-c1ccc(C[C@H](NC(=O)c2c(Cl)cccc2Cl)C(=O)O)cc1 [Example 58, N-(2,6-Dichlorobenzoyl)-4-[2-(N,N-dimethylcarbamoyl)phenyl]-L-phenylalanine] | 300 to 1000
O=C(NCCN1CCOCC1)c1ccccc1-c1ccc(C[C@H](NC(=O)c2c(Cl)cccc2Cl)C(=O)O)cc1 [Example 59, N-(2,6-Dichlorobenzoyl)-4-[2-[N-(2-morpholinoethyl)carbamoyl]phenyl]-L-phenylalanine] | 1000 to 5000
NC(=O)c1ccccc1-c1ccc(C[C@H](NC(=O)c2c(Cl)cccc2Cl)C(=O)O)cc1 [Example 60] | 300 to 1000
CS(=O)(=O)NC(=O)c1ccccc1-c1ccc(C[C@H](NC(=O)c2c(Cl)cccc2Cl)C(=O)O)cc1 [Example 61, N-(2,6-Dichlorobenzoyl)-4-[2-[(N-methanesulfonyl)carbamoyl]phenyl]-L-phenylalanine] | > 5000
COc1ccccc1-c1ccc(C[C@H](NC(=O)c2ccc([N+](=O)[O-])cc2Cl)C(=O)O)cc1 [Example 62, N-(2-Chloro-4-nitrobenzoyl)-4-(2-methoxyphenyl)-L-phenylalanine] | < 300
COc1ccccc1-c1ccc(C[C@H](NC(=O)c2ccc(N)cc2Cl)C(=O)O)cc1 [Example 63, N-(4-Amino-2-chlorobenzoyl)-4-(2-methoxyphenyl)-L-phenylalanine] | 300 to 1000
COc1ccccc1-c1ccc(C[C@H](NC(=O)c2ccc(NS(C)(=O)=O)cc2Cl)C(=O)O)cc1 [Example 64, N-[2-Chloro-4-(methanesulfonylamino)benzoyl]-4-(2-methoxyphenyl)-L-phenylalanine] | < 300
COc1ccccc1-c1ccc(C[C@H](NC(=O)c2ccc(NS(=O)(=O)C(F)(F)F)cc2Cl)C(=O)O)cc1 [Example 65, N-[2-Chloro-4-(trifluoromethanesulfonylamino)benzoyl]-4-(2-methoxyphenyl)-L-phenylalanine] | < 300
CCOC(=O)Nc1ccc(C(=O)N[C@@H](Cc2ccc(-c3ccccc3OC)cc2)C(=O)O)c(Cl)c1 [Example 66, N-[2-Chloro-4-(ethoxycarbonylamino)benzoyl]-4-(2-methoxyphenyl)-L-phenylalanine] | < 300
COc1ccccc1-c1ccc(C[C@H](NC(=O)c2ccc(NC(C)=O)cc2Cl)C(=O)O)cc1 [Example 67, N-[2-Chloro-4-(acetylamino)benzoyl]-4-(2-methoxyphenyl)-L-phenylalanine] | 300 to 1000
COc1ccccc1-c1ccc(C[C@H](NC(=O)c2ccc(NS(=O)(=O)c3ccccc3)cc2Cl)C(=O)O)cc1 [Example 68, N-[2-Chloro-4-(benzenesulfonylamino)benzoyl]-4-(2-methoxyphenyl)-L-phenylalanine] | < 300
COc1ccccc1-c1ccc(C[C@H](NC(=O)c2ccc(NC(N)=O)cc2Cl)C(=O)O)cc1 [Example 69, N-(2-Chloro-4-ureidobenzoyl)-4-(2-methoxyphenyl)-L-phenylalanine] | < 300
CNC(=S)Nc1ccc(C(=O)N[C@@H](Cc2ccc(-c3ccccc3OC)cc2)C(=O)O)c(Cl)c1 [Example 70, N-[2-Chloro-4-(3-methylthioureido)benzoyl]-4-(2-methoxyphenyl)-L-phenylalanine] | < 300
COc1ccccc1-c1ccc(C[C@H](NC(=O)c2c(Cl)cccc2Cl)C(=O)O)cc1C(C)O (stereo partly drawn) [Example 73, N-(2,6-Dichlorobenzoyl)-3-(1-hydroxyethyl)-4-(2-methoxyphenyl)-L-phenylalanine] | < 300
COc1ccc(-c2ccc(C[C@H](NC(=O)c3ccc(C(=O)O)cc3)C(=O)O)cc2)cc1 [Example 76] | > 5000
COc1cccc(OC)c1-c1ccc(C[C@H](NC(=O)c2ccc(NS(C)(=O)=O)cc2Cl)C(=O)O)cc1 [Example 77] | < 300
COc1ccccc1-c1ccc(C[C@H](NC(=O)[C@H](C)c2ccccc2)C(=O)O)cc1 [Example 78] | 300 to 1000
COc1ccccc1-c1ccc(C[C@H](NC(=O)c2c(Cl)cccc2Cl)C(=O)O)cc1NC(C)=O [Example 80] | < 300
O=C(O)c1ccc(C(=O)N[C@@H](Cc2ccc(-c3ccccc3O)cc2)C(=O)O)cc1 [Example 81] | > 5000
